Experimental data taken from US20150073021A1 (priority 2013, published 2015).

How the values were obtained:
[1] = system: rats expressing pathologically excessive levels of MMPs; conditions: rat, in vivo; cited from earlier work
bovine serum albumin = bovine serum albumin (Bos taurus, UniProt P02769); conditions: cited from earlier work
cell and tissue culture = conditions: cited from earlier work
Bacillus anthracis = conditions: in vivo
humans = conditions: in vivo; cited from earlier work

Sequence of bovine serum albumin (P02769 25-607): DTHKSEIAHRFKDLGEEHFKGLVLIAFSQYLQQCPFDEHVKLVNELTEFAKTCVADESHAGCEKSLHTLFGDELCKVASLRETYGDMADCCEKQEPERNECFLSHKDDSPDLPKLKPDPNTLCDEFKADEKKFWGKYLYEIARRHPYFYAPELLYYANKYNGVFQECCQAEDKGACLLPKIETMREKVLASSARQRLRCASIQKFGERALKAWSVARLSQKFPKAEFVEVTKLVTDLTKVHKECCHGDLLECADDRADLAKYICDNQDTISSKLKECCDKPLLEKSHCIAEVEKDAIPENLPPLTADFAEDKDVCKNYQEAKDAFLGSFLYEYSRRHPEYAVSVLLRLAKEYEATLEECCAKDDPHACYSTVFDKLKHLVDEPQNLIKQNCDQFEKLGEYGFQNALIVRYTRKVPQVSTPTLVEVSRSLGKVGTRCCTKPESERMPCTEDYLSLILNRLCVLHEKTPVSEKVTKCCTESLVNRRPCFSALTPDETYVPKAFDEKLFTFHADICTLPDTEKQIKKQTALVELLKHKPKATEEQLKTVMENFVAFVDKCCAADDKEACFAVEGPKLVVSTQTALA

SMILES | toxicity after oral gavage [1] | binding to bovine serum albumin (bovine serum albumin) | toxicity compared to the parent compound curcumin (cell and tissue culture) | treatment of subject infected with Bacillus anthracis (Bacillus anthracis) | toxicity in humans (humans)
O=C(/C=C/c1ccc(O)cc1)C(C(=O)/C=C/c1ccc(O)cc1)C(=O)Nc1ccccc1 [CMC2.24] | no evidence of toxicity | bind fairly strongly | even less toxicity | effective to treat the subject | –
COc1cc(/C=C/C(=O)CC(=O)/C=C/c2ccc(O)c(OC)c2)ccc1O [curcumin, reference compound] | no evidence of toxicity | bind fairly strongly | – | – | virtually no toxicity
